Measurements from ChEMBL document CHEMBL4680187, “Optimization of EphA2 antagonists based on a lithocholic acid core led to the identification of UniPR505, a new 3α-carbamoyloxy derivative with antiangiogenetic properties” (Eur J Med Chem, 2020).

How the values were obtained:
[1] = target: T1, Ephrin type-B receptor 3 (Mus musculus, UniProt P54754); assay: Displacement of biotinylated ephrin-B1-Fc from mouse EphB3 Fc preincubated for 1 hr followed by ephrin-B1-FC addition and measured after 4 hrs by ELISA
T1 sequence (P54754 whole entry): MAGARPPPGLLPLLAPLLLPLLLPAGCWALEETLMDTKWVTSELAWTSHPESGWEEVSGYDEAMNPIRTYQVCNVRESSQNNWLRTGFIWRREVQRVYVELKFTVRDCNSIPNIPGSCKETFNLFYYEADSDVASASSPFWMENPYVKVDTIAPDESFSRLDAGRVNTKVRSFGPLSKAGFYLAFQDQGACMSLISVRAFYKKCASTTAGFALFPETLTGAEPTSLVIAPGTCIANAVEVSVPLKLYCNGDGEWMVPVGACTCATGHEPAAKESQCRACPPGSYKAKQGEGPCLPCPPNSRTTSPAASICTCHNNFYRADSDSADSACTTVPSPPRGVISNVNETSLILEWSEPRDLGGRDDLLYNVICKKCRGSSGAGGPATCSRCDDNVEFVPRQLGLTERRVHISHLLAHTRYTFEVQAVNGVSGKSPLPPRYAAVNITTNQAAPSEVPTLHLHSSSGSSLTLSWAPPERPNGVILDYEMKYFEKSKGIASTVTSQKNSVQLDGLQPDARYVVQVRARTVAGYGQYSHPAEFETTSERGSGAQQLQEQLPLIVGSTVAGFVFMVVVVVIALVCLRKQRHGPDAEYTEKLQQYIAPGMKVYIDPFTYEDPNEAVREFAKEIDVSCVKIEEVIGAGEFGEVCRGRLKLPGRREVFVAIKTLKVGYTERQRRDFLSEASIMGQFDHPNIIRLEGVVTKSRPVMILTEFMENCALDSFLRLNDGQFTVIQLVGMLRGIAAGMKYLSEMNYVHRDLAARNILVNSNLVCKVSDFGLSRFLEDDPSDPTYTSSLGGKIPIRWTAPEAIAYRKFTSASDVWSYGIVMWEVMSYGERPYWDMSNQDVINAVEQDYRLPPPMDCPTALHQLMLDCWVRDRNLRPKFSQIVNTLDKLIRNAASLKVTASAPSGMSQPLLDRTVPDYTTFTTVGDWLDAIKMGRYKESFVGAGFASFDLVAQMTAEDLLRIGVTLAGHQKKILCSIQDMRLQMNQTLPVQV

[2] = target: T2, Ephrin type-A receptor 8 (Mus musculus, UniProt O09127); assay: Displacement of biotinylated ephrin-A1-Fc from mouse EphA8 Fc preincubated for 1 hr followed by ephrin-A1-FC addition and measured after 4 hrs by ELISA
T2 sequence (O09127 whole entry): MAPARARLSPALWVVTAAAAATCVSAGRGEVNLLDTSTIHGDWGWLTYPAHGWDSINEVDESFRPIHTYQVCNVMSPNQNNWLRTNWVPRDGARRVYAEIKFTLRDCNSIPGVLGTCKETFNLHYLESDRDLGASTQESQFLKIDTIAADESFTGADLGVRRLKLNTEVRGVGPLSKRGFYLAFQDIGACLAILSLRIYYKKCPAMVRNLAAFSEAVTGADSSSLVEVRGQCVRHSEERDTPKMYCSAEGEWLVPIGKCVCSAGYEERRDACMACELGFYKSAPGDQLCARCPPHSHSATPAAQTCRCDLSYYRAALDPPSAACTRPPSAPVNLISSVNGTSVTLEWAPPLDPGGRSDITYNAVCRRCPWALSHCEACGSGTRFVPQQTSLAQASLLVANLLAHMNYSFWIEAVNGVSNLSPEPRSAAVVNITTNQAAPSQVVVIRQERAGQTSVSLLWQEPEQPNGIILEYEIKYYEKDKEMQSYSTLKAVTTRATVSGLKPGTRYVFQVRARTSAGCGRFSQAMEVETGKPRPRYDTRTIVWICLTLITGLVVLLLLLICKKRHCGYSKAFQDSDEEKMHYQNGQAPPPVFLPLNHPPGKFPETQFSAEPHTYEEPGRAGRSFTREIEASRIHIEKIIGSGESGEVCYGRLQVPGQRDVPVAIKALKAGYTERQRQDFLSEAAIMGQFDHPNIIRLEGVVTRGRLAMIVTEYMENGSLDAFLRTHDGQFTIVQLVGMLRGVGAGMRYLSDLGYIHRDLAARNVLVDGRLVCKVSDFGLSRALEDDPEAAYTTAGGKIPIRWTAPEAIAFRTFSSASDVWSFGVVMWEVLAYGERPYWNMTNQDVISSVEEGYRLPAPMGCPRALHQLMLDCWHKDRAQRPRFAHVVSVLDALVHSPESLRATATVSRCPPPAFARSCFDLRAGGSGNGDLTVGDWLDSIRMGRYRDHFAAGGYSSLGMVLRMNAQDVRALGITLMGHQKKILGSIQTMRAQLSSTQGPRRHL

IC50 [1]: 11 µM | IC50 [2]: 7.7 µM
SMILES: CCNC(=O)O[C@@H]1CC[C@@]2(C)[C@H](CC[C@@H]3[C@@H]2CC[C@]2(C)[C@@H]([C@H](C)CCC(=O)N[C@H](CC(=O)O)Cc4c[nH]c5ccccc45)CC[C@@H]32)C1
